In experiment [1] the target is T1, Serine/threonine-protein kinase TAO1 (Homo sapiens) (UniProt Q7L7X3).
T1 sequence (whole entry): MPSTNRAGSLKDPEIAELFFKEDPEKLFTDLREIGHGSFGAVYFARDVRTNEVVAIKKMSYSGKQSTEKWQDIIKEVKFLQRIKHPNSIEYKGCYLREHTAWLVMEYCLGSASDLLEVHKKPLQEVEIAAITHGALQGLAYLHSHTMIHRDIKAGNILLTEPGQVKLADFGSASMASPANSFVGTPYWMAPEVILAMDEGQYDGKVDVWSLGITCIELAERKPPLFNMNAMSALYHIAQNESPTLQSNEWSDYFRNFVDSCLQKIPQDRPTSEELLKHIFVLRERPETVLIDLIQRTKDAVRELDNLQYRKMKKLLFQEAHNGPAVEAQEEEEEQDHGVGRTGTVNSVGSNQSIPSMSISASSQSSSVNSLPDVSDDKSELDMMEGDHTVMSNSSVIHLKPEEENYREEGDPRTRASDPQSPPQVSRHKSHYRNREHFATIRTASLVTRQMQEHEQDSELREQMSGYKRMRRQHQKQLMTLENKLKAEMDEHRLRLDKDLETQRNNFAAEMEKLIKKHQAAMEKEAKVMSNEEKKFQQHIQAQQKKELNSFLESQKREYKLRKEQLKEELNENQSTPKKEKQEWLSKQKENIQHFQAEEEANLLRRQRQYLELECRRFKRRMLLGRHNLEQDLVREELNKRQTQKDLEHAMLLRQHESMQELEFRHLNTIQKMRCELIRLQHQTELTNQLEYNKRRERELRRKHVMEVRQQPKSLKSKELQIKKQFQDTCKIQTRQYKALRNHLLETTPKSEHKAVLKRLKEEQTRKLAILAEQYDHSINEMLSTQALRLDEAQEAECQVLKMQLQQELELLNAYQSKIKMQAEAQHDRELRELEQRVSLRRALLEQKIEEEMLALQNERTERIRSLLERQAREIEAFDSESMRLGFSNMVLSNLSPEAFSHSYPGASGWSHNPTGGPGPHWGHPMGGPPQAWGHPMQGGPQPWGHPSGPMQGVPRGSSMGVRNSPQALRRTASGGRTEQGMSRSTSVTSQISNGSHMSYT
Description: Inhibition of TAOK1 (unknown origin) assessed as residual activity at 100 nM by KINOMEscan analysis relative to control.

The target of experiment [2] is Non-receptor tyrosine-protein kinase TYK2 (Homo sapiens) (UniProt P29597). Description: Inhibition of TYK2 JH1 catalytic domain (unknown origin) assessed as residual activity at 100 nM by KINOMEscan analysis relative to control.
Non-receptor tyrosine-protein kinase TYK2 (Homo sapiens), sequence (P29597 whole entry, the tested form may be a part): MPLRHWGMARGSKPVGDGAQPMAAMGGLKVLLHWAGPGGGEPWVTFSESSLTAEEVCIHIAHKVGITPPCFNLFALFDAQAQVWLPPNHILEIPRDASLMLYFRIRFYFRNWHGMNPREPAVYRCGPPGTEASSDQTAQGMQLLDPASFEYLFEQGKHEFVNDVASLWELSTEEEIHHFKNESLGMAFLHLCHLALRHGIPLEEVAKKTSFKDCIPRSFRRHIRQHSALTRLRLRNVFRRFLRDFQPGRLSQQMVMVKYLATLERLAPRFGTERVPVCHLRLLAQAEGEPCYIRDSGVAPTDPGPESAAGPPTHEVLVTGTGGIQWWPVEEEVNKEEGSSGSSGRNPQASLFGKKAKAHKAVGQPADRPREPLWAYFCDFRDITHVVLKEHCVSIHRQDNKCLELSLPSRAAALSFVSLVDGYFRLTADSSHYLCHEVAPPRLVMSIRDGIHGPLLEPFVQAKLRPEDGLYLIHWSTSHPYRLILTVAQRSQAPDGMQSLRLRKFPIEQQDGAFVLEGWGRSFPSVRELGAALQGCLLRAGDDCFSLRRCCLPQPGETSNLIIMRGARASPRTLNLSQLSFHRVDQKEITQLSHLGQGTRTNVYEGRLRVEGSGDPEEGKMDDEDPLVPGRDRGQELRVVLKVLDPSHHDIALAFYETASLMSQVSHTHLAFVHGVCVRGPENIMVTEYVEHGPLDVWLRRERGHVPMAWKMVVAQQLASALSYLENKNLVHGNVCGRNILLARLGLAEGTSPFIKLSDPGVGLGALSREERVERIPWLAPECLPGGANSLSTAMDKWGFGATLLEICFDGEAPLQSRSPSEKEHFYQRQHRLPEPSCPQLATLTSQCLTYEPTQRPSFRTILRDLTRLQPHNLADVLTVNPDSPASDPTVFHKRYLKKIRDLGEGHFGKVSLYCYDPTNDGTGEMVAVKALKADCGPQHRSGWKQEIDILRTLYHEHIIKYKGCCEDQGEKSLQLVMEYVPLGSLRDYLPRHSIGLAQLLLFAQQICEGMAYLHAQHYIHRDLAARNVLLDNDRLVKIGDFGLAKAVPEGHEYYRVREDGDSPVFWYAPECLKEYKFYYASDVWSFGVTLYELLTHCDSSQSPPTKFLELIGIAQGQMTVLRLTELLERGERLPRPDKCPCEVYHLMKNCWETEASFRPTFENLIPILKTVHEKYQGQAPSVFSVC
For experiment [3], the target named is Ribosomal protein S6 kinase beta-1 (Homo sapiens) (UniProt P23443). Description: Inhibition of S6K1 (unknown origin) assessed as residual activity at 100 nM by KINOMEscan analysis relative to control.
Ribosomal protein S6 kinase beta-1 (Homo sapiens), sequence (P23443 whole entry, looked up): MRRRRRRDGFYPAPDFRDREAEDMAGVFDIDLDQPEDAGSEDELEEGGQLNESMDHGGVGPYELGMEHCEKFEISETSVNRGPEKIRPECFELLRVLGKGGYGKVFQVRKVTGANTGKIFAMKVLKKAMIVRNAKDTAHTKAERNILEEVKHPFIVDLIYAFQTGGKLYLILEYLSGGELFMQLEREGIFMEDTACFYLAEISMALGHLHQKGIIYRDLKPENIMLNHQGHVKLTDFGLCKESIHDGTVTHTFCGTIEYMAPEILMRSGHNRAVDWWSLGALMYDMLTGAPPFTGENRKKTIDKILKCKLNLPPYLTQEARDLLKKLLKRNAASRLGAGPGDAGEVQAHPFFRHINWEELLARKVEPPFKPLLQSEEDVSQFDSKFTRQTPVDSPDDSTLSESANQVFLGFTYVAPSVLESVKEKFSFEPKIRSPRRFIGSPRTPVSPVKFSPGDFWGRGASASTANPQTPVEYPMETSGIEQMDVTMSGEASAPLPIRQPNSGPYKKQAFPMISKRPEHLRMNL
Experiment [4] has as its target T2, Mitogen-activated protein kinase 13 (Homo sapiens) (UniProt O15264).
T2 sequence (whole entry): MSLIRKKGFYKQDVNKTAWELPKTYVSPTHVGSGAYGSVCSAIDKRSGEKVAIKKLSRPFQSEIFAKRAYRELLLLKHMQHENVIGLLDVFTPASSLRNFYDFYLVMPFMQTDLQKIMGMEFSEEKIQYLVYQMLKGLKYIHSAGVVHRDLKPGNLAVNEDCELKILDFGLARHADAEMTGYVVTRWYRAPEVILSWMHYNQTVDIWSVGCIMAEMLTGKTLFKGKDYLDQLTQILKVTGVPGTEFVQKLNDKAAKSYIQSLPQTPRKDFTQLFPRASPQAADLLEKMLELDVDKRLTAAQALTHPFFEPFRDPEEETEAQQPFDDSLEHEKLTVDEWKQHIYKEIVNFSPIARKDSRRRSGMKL
Description: Inhibition of p38-delta (unknown origin) assessed as residual activity at 100 nM by KINOMEscan analysis relative to control.

Experiment [5] concerns the target Homeodomain-interacting protein kinase 2 (Homo sapiens) (UniProt Q9H2X6). Description: Inhibition of HIPK2 (unknown origin) assessed as residual activity at 100 nM by KINOMEscan analysis relative to control.
The target of experiment [6] is Serine/threonine-protein kinase MRCK alpha (Homo sapiens) (UniProt Q5VT25). Description: Inhibition of MRCKA (unknown origin) assessed as residual activity at 100 nM by KINOMEscan analysis relative to control.
Serine/threonine-protein kinase MRCK alpha (Homo sapiens), sequence (Q5VT25 whole entry): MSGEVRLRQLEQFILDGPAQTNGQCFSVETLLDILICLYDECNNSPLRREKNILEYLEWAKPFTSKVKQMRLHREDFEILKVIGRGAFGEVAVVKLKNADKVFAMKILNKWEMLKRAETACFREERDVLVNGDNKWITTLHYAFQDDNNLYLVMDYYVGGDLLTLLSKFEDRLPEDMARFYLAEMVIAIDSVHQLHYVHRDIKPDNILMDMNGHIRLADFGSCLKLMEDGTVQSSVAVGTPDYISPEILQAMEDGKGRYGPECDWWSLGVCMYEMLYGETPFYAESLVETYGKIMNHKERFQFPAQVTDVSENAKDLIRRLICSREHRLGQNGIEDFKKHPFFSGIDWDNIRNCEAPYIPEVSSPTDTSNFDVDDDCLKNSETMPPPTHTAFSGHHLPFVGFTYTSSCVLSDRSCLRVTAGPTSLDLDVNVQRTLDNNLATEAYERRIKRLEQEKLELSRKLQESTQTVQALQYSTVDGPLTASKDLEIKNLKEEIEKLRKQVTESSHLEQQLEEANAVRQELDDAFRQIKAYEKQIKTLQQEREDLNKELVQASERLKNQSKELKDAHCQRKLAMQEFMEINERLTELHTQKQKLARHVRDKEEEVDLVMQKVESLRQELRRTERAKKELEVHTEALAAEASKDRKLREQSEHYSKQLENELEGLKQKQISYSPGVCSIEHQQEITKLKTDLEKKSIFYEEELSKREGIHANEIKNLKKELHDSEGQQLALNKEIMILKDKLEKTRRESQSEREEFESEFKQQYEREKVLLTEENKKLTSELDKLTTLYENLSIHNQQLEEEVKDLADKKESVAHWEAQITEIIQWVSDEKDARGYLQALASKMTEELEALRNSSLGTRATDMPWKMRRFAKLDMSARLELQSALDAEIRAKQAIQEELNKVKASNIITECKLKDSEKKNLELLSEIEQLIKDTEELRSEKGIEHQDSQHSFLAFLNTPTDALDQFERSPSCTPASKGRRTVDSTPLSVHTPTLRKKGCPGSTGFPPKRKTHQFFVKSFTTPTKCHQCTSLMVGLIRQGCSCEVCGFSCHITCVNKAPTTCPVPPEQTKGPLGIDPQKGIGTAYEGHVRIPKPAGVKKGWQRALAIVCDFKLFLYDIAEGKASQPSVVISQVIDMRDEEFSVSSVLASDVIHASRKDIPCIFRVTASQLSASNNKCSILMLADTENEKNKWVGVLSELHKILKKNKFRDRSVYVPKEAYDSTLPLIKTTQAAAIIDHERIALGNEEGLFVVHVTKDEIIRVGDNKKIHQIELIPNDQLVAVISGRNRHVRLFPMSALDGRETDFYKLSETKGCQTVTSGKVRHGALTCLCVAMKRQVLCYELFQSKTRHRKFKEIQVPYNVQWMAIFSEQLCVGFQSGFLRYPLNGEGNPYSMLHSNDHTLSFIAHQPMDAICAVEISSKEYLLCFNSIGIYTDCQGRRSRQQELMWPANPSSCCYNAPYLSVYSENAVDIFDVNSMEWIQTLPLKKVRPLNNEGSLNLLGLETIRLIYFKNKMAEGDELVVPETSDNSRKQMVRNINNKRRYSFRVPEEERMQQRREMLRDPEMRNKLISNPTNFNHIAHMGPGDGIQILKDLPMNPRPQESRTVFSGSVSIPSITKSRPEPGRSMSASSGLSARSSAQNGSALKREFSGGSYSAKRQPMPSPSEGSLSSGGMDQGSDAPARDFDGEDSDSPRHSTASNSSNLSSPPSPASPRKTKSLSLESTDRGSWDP
For experiment [7], the target named is STE20/SPS1-related proline-alanine-rich protein kinase (Homo sapiens) (UniProt Q9UEW8). Description: Inhibition of STK39 (unknown origin) assessed as residual activity at 100 nM by KINOMEscan analysis relative to control.
The target in experiment [8] is Tyrosine-protein kinase CSK (Homo sapiens) (UniProt P41240). Description: Inhibition of CSK (unknown origin) assessed as residual activity at 100 nM by KINOMEscan analysis relative to control.
Tyrosine-protein kinase CSK (Homo sapiens), sequence (P41240 2-450 limits assumed): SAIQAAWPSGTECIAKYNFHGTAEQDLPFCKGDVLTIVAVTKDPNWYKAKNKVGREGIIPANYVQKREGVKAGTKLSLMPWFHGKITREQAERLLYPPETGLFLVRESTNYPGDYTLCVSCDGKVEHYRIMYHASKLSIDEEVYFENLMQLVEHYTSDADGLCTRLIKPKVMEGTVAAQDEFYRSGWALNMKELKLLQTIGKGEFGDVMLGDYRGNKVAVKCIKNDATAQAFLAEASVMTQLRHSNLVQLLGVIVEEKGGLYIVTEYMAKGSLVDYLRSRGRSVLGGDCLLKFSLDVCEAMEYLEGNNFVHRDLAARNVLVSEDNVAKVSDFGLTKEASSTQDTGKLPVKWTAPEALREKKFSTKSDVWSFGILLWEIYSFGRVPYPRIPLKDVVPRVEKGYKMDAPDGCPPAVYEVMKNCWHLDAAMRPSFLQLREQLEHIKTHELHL
The target of experiment [9] is Tyrosine-protein kinase BTK (Homo sapiens) (UniProt Q06187). Description: Inhibition of BTK (unknown origin) assessed as residual activity at 100 nM by KINOMEscan analysis relative to control.

Homeodomain-interacting protein kinase 2 (Homo sapiens), sequence (Q9H2X6 whole entry, looked up): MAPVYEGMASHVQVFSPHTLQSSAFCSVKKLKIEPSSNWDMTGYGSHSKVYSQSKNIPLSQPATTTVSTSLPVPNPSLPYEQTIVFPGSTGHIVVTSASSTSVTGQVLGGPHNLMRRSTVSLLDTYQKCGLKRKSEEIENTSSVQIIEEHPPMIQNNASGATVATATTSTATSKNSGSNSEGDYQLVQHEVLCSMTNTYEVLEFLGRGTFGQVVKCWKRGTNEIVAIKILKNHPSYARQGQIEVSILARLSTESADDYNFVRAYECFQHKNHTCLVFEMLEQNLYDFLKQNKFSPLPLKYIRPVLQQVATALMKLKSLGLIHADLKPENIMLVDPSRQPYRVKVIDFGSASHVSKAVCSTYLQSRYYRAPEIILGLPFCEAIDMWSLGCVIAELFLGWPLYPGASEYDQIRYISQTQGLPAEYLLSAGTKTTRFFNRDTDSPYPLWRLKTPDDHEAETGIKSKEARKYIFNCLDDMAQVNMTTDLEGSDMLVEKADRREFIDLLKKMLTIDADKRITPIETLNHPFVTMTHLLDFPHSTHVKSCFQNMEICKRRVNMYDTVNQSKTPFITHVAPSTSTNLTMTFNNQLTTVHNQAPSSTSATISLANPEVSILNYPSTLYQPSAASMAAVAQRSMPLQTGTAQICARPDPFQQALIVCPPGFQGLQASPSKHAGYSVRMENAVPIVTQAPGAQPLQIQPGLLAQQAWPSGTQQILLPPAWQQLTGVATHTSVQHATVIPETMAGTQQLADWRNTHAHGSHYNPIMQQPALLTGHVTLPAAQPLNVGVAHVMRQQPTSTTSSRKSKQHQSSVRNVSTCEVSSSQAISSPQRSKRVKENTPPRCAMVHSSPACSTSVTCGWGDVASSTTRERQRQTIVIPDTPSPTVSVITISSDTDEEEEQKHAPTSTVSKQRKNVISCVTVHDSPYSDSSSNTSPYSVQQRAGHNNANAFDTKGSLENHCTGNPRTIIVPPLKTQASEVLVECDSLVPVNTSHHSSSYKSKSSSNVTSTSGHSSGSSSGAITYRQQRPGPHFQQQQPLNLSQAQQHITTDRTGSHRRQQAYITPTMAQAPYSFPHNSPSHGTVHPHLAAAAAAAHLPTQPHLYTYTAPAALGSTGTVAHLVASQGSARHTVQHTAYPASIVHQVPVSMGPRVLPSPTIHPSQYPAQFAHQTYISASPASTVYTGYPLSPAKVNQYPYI

For the compound `COc1cc2ncnc(N[C@H](C)c3cccc4ccccc34)c2cc1OC`, the Activity in [1] was 88%; in experiment [2], 94%; in [3], 77%; in experiment [4] it was 100%; in [5], 93%; in [6], 14%. The Activity in [7] worked out at 93%; in [8], 90%; in experiment [9] it was 95%.

The values above are taken from ChEMBL document CHEMBL5678818, “Discovery of potent SOS1 inhibitors that block RAS activation via disruption of the RAS-SOS1 interaction” (Proc Natl Acad Sci U S A, 2019).
